Data published in patent US8466193B2, “Selective inhibitors of histone deacetylase” (Pharmacyclics, Inc., priority 2008, dated 2013).

Key:
HDAC6 = biological target: T1, HDAC6 (Homo sapiens, UniProt Q9UBN7); experiment: Histone deacetylase activity, continuous trypsin-coupled assay; assay type: biochemical; conditions: 15 minutes preincubation; substrate acetyl-Gly-Ala-(N-acetyl-Lys)-AMC
T1 sequence (Q9UBN7 1-1215): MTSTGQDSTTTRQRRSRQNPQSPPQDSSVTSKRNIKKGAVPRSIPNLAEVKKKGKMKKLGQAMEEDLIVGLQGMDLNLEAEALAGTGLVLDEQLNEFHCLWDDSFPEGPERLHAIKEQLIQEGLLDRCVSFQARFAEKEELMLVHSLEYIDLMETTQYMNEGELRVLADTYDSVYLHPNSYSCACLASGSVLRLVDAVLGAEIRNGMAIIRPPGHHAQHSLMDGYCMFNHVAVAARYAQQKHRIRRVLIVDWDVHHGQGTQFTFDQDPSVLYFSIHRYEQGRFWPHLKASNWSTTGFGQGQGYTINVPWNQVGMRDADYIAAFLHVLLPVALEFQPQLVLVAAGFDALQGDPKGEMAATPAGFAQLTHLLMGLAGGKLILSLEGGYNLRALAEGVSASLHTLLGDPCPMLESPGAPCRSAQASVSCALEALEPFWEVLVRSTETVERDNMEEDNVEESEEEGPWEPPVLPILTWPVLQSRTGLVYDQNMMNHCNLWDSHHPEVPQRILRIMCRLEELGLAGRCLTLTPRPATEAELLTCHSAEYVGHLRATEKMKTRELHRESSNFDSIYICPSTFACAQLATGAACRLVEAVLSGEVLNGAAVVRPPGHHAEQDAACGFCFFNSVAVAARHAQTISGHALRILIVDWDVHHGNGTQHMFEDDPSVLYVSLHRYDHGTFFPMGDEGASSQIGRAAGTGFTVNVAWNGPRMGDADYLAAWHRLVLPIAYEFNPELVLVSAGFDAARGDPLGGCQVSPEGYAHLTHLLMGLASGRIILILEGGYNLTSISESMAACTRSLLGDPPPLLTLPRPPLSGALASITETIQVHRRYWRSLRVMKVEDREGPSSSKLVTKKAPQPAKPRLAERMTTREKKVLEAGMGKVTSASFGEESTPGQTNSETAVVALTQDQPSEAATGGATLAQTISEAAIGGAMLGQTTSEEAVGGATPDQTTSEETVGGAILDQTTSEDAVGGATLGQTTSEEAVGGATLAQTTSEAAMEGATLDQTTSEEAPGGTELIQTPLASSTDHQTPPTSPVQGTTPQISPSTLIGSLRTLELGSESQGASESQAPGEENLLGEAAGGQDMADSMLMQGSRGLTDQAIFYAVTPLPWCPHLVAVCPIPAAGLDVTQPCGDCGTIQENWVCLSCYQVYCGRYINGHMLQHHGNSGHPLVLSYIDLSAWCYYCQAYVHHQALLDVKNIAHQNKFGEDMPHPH
Experimental: (§1) HDAC activity was measured using a continuous trypsin-coupled assay that has been described in detail previously (US 20070281934; Schultz et. al., Biochemistry, 43 (34), 11083-11091, 2004; Kim et al. (2006), Methods Mol. Biol., 325:273-283). For inhibitor characterization, measurements were performed in a reaction volume of 100 μL using 96-well assay plates in a fluorescence plate reader. For each isozyme, the HDAC protein in reaction buffer (50 mM HEPES, 100 mM KCl, 0.001% Tween-20, 5% DMSO, pH 7.4, supplemented with bovine serum albumin at concentrations of 0-0.05%, was mixed with inhibitor at various concentrations and allowed to incubate for 15 minutes. Trypsin was added to a final concentration of 50 nM, and acetyl-Gly-Ala-(N-acetyl-Lys)-AMC was added to a final concentration of 25-100 μM to initiate the reaction. After a 30 minute lag time, the fluorescence was measured over a 30 minute time frame using an excitation wavelength of 355 nm and a detection wavelength of 460 nm. The increase in fluorescence with time was used as the measure of the reaction rate. Inhibition constants Ki(app) were obtained using the program BatchKi (Biokin, Pullman, Wash.).

HDAC8 = biological target: T2, HDAC8 (Homo sapiens, UniProt Q9BY41); experiment: as above; assay type: biochemical; conditions: 15 minutes preincubation; substrate acetyl-Gly-Ala-(N-acetyl-Lys)-AMC
T2 sequence (Q9BY41 1-377): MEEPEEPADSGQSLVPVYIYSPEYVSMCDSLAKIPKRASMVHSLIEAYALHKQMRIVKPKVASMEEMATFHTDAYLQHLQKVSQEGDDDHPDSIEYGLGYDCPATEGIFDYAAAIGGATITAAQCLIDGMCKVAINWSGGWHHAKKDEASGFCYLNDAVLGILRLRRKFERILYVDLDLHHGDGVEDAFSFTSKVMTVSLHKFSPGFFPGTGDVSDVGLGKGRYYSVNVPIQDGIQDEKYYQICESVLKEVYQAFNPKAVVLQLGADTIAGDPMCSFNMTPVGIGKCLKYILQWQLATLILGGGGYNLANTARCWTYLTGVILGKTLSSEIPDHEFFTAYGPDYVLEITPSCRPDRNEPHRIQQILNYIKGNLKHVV
Experimental: as §1

HDAC1 = HDAC1 (Homo sapiens, UniProt Q13547); experiment: as above; assay type: biochemical; conditions: 15 minutes preincubation; substrate acetyl-Gly-Ala-(N-acetyl-Lys)-AMC
Experimental: as §1

Jurkat cells = experiment: Cell proliferation assay, growth inhibition by Alamar Blue; assay type: cell-based; conditions: Jurkat cells treated with compound for 3 days
Experimental: Cell lines were obtained from DSMZ (Braunschweig, Germany) or ATCC (Manassas, Va.). Cells were grown in RPMI 1640 with 10% fetal bovine serum in a 5% CO2/air incubator at 37° C. Thapsigargin and BAPTA-AM were from Calbiochem (San Diego, Calif.). 3-((dimethylamino)methyl)-N-(2-(4-(hydroxycarbamoyl)phenoxy)ethyl)benzofuran-2-carboxamide is a broad-spectrum HDAC inhibitor which was synthesized as previously described. Other analogs with varying degrees of specificity towards the HDAC isoforms were synthesized as described herein.
Tumor cell lines and human umbilical vein endothelial cells (HUVEC) were cultured for at least two doubling times, and growth was monitored at the end of compound exposure using an Alamar Blue™ (Biosource, Camarillo, Calif.) fluorometric cell proliferation assay as recommended by the manufacturer. Compounds were assayed in triplicate wells in 96-well plates. The concentration required to inhibit cell growth by 50% (GI50) and 95% confidence intervals were estimated from nonlinear regression using a 4-parameter logistic equation. The effect of HDAC8 selective inhibitor compounds on cell proliferation in Jurkat cells was measured. Apoptosis was measured by Annexin-V flow cytommetry. Growth inhibition was measured by Alamar Blue assay. Cells were treated with compound for 3 days.

HDAC2 = HDAC2 (Homo sapiens, UniProt Q92769); experiment: Histone deacetylase activity, continuous trypsin-coupled assay; assay type: biochemical; conditions: 15 minutes preincubation; substrate acetyl-Gly-Ala-(N-acetyl-Lys)-AMC
Experimental: as §1

HDAC10 = biological target: T3, HDAC10 (Homo sapiens, UniProt Q969S8); experiment: as above; assay type: biochemical; conditions: 15 minutes preincubation; substrate acetyl-Gly-Ala-(N-acetyl-Lys)-AMC
T3 sequence (Q969S8 1-669): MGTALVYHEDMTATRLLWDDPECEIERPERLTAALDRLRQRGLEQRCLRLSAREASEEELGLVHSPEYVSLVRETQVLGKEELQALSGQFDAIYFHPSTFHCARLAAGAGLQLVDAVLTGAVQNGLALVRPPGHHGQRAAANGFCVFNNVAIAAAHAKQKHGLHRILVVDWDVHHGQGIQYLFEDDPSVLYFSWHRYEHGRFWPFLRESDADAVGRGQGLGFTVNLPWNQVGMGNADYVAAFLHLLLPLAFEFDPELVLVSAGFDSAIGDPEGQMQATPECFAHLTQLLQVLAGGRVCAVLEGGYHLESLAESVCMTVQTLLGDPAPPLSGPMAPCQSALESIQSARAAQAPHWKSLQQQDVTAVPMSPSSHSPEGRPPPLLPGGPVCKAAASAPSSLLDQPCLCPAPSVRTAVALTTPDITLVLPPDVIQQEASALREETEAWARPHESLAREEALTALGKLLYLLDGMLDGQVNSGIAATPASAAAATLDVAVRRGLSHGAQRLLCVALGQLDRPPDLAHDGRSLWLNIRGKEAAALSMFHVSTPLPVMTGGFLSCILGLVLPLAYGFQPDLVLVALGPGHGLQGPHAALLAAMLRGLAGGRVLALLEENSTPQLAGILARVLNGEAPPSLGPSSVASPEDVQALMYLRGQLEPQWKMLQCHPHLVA
Experimental: as §1

Chain of HDAC1 (Q13547 whole entry, species assumed): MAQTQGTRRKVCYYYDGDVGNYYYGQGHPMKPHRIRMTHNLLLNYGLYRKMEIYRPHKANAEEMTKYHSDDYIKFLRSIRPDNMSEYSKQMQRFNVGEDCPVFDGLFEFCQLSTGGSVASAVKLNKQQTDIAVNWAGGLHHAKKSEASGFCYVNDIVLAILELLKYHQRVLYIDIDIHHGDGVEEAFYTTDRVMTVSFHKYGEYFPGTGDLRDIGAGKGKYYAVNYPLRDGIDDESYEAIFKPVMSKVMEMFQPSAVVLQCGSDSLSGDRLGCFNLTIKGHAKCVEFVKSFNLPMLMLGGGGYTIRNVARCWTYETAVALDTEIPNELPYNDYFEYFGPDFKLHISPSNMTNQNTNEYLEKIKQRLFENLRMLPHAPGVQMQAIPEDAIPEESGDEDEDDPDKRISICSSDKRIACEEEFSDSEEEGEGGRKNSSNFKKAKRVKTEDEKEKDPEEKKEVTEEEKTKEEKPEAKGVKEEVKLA
Chain of HDAC2 (Q92769 whole entry, species assumed): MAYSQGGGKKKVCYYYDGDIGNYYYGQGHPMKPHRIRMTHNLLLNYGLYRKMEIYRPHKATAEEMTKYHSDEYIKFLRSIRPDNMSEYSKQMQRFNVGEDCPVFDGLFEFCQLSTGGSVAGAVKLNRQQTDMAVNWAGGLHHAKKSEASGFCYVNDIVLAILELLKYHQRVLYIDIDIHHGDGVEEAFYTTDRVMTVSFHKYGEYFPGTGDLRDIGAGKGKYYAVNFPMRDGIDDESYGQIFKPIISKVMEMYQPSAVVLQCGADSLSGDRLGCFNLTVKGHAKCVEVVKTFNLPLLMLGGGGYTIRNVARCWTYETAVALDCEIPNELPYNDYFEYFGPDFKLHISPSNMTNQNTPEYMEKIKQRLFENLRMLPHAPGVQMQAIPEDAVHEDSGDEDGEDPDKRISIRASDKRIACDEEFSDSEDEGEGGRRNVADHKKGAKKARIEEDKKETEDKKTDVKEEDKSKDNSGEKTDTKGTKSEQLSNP

SMILES	IC50 (HDAC6) [µM]	IC50 (HDAC8) [µM]	IC50 (HDAC1) [µM]	GI50 (Jurkat cells; Homo sapiens, 72 h) [µM]	IC50 (HDAC2) [µM]	IC50 (HDAC10) [µM]	GI50 (Jurkat cells) [µM]
O=C(NO)c1ccc2ncn(Cc3ccccc3)c2c1 [Compound 1, 3-benzyl-N-hydroxy-3H-benzo[d]imidazole-5-carboxamide]	1 to 10	< 1	> 10				
COc1ccc(Cn2cccc2/C=C/C(=O)NO)cc1 [Compound 203, (E)-3-(1-(4-methoxybenzyl)-1H-pyrrol-2-yl)-N-hydroxyacrylamide]	1 to 10	< 1	> 10				
O=C(/C=C/c1cccn1CCOc1ccccc1)NO [Compound 232, (E)-N-hydroxy-3-(2-phenoxyethyl-1H-pyrrol-2-yl)acrylamide]	1 to 10	< 1	> 10				4.98
O=C(/C=C/c1cccn1CCOc1cccc(F)c1)NO [Compound 234, (E)-3-(1-(2-(3-fluorophenoxy)ethyl)-1H-pyrrol-2-yl)-N-hydroxyacrylamide]	1 to 10	< 1	1 to 10	4.3			
O=C(NO)c1ccc2ccn(CCc3ccccc3)c2c1 [Compound 302, N-hydroxy-1-(2-phenyl-ethyl)-1H-indole-6-carboxamide]				25.2			
COc1ccc(Cn2ccc3ccc(C(=O)NO)cc32)cc1 [Compound 306, N-hydroxy-1-(4-methoxybenzyl)-1H-indole-6-carboxamide]				3.6			
COc1ccc(Cn2cc(CN(C)C)c3ccc(C(=O)NO)cc32)cc1 [Compound 307, N-hydroxy-1-(4-methoxybenzyl)-3-(dimethylaminomethyl)-1H-indole-6-carboxamide]		< 1			> 10		
COc1ccc(Cn2cc(CNCc3ccccc3)c3ccc(C(=O)NO)cc32)cc1 [Compound 308, 3-((benzylamino)methyl)-N-hydroxy-1-(4-methoxybenzyl)-1H-indole-6-carboxamide]				5.2			
COc1ccc(Cn2cc(CN(C)CCc3ccccn3)c3ccc(C(=O)NO)cc32)cc1 [Compound 309, N-hydroxy-1-(4-methoxybenzyl)-3-((methyl(2-(pyridin-2-yl)ethyl)amino)methyl)-1H-indole-6-carboxamide]		< 1		19.2	> 10		
COc1ccc(Cn2ccc3ccc(C(=O)NO)cc32)cn1 [Compound 310, N-hydroxy-1-(2-methoxylpyridin-5-ylmethyl)-1H-indole-6-carboxamide]		< 1		16	> 10		
O=C(NO)c1ccc2ccn(Cc3cccc(NS(=O)(=O)c4ccccc4)c3)c2c1 [Compound 313, N-hydroxy-1-(3-(phenylsulfonamido)benzyl)-1H-indole-6-carboxamide]		< 1		5.2	1 to 10		
O=C(NO)c1ccc2ccn(Cc3ccc4c(c3)OCO4)c2c1 [Compound 315, N-hydroxy-1-(benzo[d][1,3]dioxol-5-ylmethyl)-1H-indole-6-carboxamide]		< 1			> 10		
COc1ccc(Cn2ccc3ccc(C(=O)NO)cc32)cc1F [Compound 330, N-hydroxy-1-(3-fluoro-4-methoxybenzyl)-1H-indole-6-carboxamide]				4.7			

Now from value to compound, other results behind:

IC50 (HDAC6) [µM]	IC50 (HDAC8) [µM]	IC50 (HDAC1) [µM]	GI50 (Jurkat cells; Homo sapiens, 72 h) [µM]	IC50 (HDAC2) [µM]	IC50 (HDAC10) [µM]	SMILES	GI50 (Jurkat cells) [µM]
1 to 10	< 1	> 10				O=C(NO)c1ccc2ccn(CCOc3ccccc3F)c2c1 [Compound 317, N-hydroxy-1-(2-(2-fluorophenoxy)ethyl)-1H-indole-6-carboxamide]	
1 to 10	< 1	> 10				O=C(NO)c1ccc2ccn(CCOc3cccc(F)c3)c2c1 [Compound 318, N-hydroxy-1-(2-(3-fluorophenoxy)ethyl)-1H-indole-6-carboxamide]	
1 to 10	< 1	> 10				O=C(NO)c1ccc2ccn(CCOc3ccccc3Cl)c2c1 [Compound 320, N-hydroxy-1-(2-(2-chlorophenoxy)ethyl)-1H-indole-6-carboxamide]	
1 to 10	< 1	> 10				O=C(NO)c1ccc2ccn(CCOc3cccc(Cl)c3)c2c1 [Compound 321, N-hydroxy-1-(2-(3-chlorophenoxy)ethyl)-1H-indole-6-carboxamide]	
> 10	< 1	> 10			> 10	O=C(NO)c1ccc2ccn(CCOc3ccccc3CN3CCOCC3)c2c1 [Compound 326, N-hydroxy-1-(2-(2-(morpholin-4-ylmethyl)phenoxy)ethyl)-1H-indole-6-carboxamide]	
			12.5			O=C(NO)c1ccc2ccn(CCOc3ccc(CN4CCOCC4)cc3)c2c1 [Compound 328, N-hydroxy-1-(2-(4-(morpholin-4-ylmethyl)phenoxy)ethyl)-1H-indole-6-carboxamide]	
